Consider six molecules from BindingDB's records for doi:10.1021/jm031046g (Novartis Institutes For Biomedical Research, 2004).

The target in this test is C-C chemokine receptor type 5 (Macaca fascicularis). In words: Antagonistic activity against monkey C-C chemokine receptor type 5.
With `Cc1cc[n+]([O-])c(C)c1C(=O)N1CCC(N2CCC(N(c3ccccc3)c3ccccc3)CC2)CC1` [(2,4-Dimethyl-1-oxy-pyridin-3-yl)-(4-diphenylamino-[1,4']bipiperidinyl-1'-yl)-methanone], the midpoint of inhibition, the IC50, lay at 117 nM.
The value for `Cc1ccccc1C(=O)N1CCC(C)(N2CCC(N(c3ccccc3)c3ccccc3)CC2)CC1` [(4-Diphenylamino-4'-methyl-[1,4']bipiperidinyl-1'-yl)-o-tolyl-methanone] was 28.6 nM.
The value for `Cc1cccc(C)c1C(=O)N1CCC(C)(N2CCC(Nc3ccc4ccn(C)c4c3)CC2)CC1` [(2,6-Dimethyl-phenyl)-[4'-methyl-4-(1-methyl-1H-indol-6-ylamino)-[1,4']bipiperidinyl-1'-yl]-methanone] was 43 nM; that for `Cc1cccc(C)c1C(=O)N1CCC(C)(N2CCC(N(Cc3ccccc3)c3ccc(Br)cc3)CC2)CC1` [{4-[Benzyl-(4-bromo-phenyl)-amino]-4'-methyl-[1,4']bipiperidinyl-1'-yl}-(2,6-dimethyl-phenyl)-methanone] was 6.2 nM.
Molecule `Cc1cccc(C)c1C(=O)N1CCC(C)(N2CCC(Nc3cccc4ccn(C)c34)CC2)CC1` [(2,6-Dimethyl-phenyl)-[4'-methyl-4-(1-methyl-1H-indol-7-ylamino)-[1,4']bipiperidinyl-1'-yl]-methanone] gave an IC50 of 147 nM.
The same measure for `Cc1cccc(C)c1C(=O)N1CCC(C)(N2CCC(Nc3ccc(C(F)(F)F)cc3)CC2)CC1` [(2,6-Dimethyl-phenyl)-[4'-methyl-4-(4-trifluoromethyl-phenylamino)-[1,4']bipiperidinyl-1'-yl]-methanone]: 1.1 nM.
